Test results reported in patent US20150322112A1, “SEMA5B PEPTIDES AND VACCINES CONTAINING THE SAME” (ONCOTHERAPY SCIENCE, INC., priority 2012, published 2015).
“Also recorded” adds a separate entry of the source. No end group written: not given here.

Legend:
[1] = tested on: peptide-pulsed TISI cells; assay: IFN-gamma ELISA of CTL clones established by limiting dilution; format: cell-based, human; settings: CTL clones from limiting dilution, target cells pulsed with peptide vs not pulsed
Description: The dilutions were made to have 0.3, 1, and 3 CTLs/well in 96 round-bottomed micro titer plate (Nalge Nunc International). CTLs were cultured with 1×10^4 cells/well of 2 kinds of human B-lymphoblastoid cell lines, 30 ng/ml of anti-CD3 antibody, and 125 IU/ml of IL-2 in a total of 150 micro 1/well of AIM-V Medium containing 5% AS. 50 micro 1/well of IL-2 were added to the medium 10 days later so to reach a final concentration of 125 IU/ml IL-2. CTL activity was tested on the 14th day, and CTL clones were expanded using the same method as described above (Uchida N et al., Clin Cancer Res 2004 Dec. 15, 10(24): 8577-86; Suda T et al., Cancer Sci 2006 May, 97(5): 411-9; Watanabe T et al., Cancer Sci 2005 August, 96(8): 498-506).
(§1) Peptide-pulsed TISI (1×10^4/well) was prepared as stimulator cells. Cultured cells in 48 wells were used as responder cells. IFN-gamma ELISPOT assay and IFN-gamma ELISA were performed under manufacture procedure.

[2] = tested on: peptide-pulsed TISI cells; assay: In vitro CTL induction with peptide-pulsed DCs, IFN-gamma ELISPOT assay; format: cell-based, human; settings: for Peptide specific CTL activity (IFN-gamma production), IFN-gamma ELISPOT: CTLs induced with the peptide, target cells pulsed with peptide vs not pulsed (control); for CTL inducibility: summary statement in the description
Text: Monocyte-derived dendritic cells (DCs) were used as antigen-presenting cells to induce cytotoxic T lymphocyte (CTL) responses against peptides presented on human leukocyte antigen (HLA). DCs were generated in vitro as described elsewhere (Nakahara S et al., Cancer Res 2003 Jul. 15, 63(14): 4112-8). Specifically, peripheral blood mononuclear cells isolated from a normal volunteer (HLA-A*2402 positive) by Ficoll-Paque plus (Pharmacia) solution were separated by adherence to a plastic tissue culture dish (Becton Dickinson) so as to enrich them as the monocyte fraction. The monocyte-enriched population was cultured in the presence of 1000 IU/ml of granulocyte-macrophage colony-stimulating factor (R&D System) and 1000 IU/ml of interleukin (IL)-4 (R&D System) in AIM-V Medium (Invitrogen) containing 2% heatinactivated autologous serum (AS). After 7 days of culture, the cytokine-induced DCs were pulsed with 20 micro g/ml of each of the synthesized peptides in the presence of 3 micro g/ml of beta 2-microglobulin for 3 hr at 37 degrees C. in AIM-V Medium. The generated cells appeared to express DC-associated molecules, such as CD80, CD83, CD86 and HLA class II, on their cell surfaces (data not shown). These peptide-pulsed DCs were then inactivated by X ray-irradiated (20 Gy) and mixed at a 1:20 ratio with autologous CD8+ T cells, obtained by positive selection with CD8 Positive Isolation Kit (Dynal). These cultures were set up in 48-well plates (Corning); each well contained 1.5×10^4 peptide-pulsed DCs, 3×10^5 CD8+ T cells and 10 ng/ml of IL-7 (R&D System) in 0.5 ml of AIM-V/2% AS medium. Three days later, these cultures were supplemented with IL-2 (CHIRON) to a final concentration of 20 IU/ml. On day 7 and 14, the T cells were further stimulated with the autologous peptide-pulsed DCs. The DCs were prepared each time by the same way described above. CTL was tested against peptide-pulsed TISI cells after the 3rd round of peptide stimulation on day 21 (Tanaka H et al., Br J Cancer 2001 Jan 5, 84(1): 94-9; Umano Y et al., Br J Cancer 2001 Apr. 20, 84(8): 1052-7; Uchida N et al., Clin Cancer Res 2004 Dec. 15, 10(24): 8577-86; Suda T et al., Cancer Sci 2006 May, 97(5): 411-9; Watanabe T et al., Cancer Sci 2005 August, 96(8): 498-506).
as §1

[3] = tested on: COS7 cells transfected with SEMA5B and HLA-A*2402; assay: Specific CTL activity against target cells expressing SEMA5B and HLA-A*2402; format: cell-based, African green monkey; settings: CTL line established with the peptide
Text: The cDNA encoding an open reading frame of target genes or HLA-A*2402 was amplified by PCR. The PCR-amplified product was cloned into expression vector. The plasmids were transfected into COS7, which is the target genes and HLA-A*2402-null cell line, using lipofectamine 2000 (Invitrogen) according to the manufacturer's recommended procedures. After 2 days from transfection, the transfected cells were harvested with versene (Invitrogen) and used as the stimulator cells (5×10^4 cells/well) for CTL activity assay.
The established CTL line raised against SEMA5B-A24-10-290 (SEQ ID NO: 41) peptide was examined for the ability to recognize target cells that express SEMA5B and HLA-A*2402 molecule. COS7 cells transfected with both the full SEMA5B and HLA-A*2402 gene (a specific model for the target cells that express SEMA5B and HLA-A*2402 gene) were prepared as a stimulator cells, and COS7 cells transfected with either full length of SEMA5B or HLA-A*2402 were used as the controls.

[4] = tested on: peptide-pulsed TISI cells; assay: IFN-gamma ELISA of expanded CTL lines; format: cell-based, human; settings: CTL lines stimulated with the peptide; target cells pulsed with peptide vs without peptide pulse
Description: CTLs were expanded in culture using the method similar to the one described by Riddell et al. (Walter E A et al., N Engl J Med 1995 October 19, 333(16): 1038-44; Riddell S R et al., Nat Med 1996 February, 2(2): 216-23). A total of 5×10^4 CTLs were suspended in 25 ml of AIM-V/5% AS medium with 2 kinds of human B-lymphoblastoid cell lines, inactivated by Mitomycin C, in the presence of 40 ng/ml of anti-CD3 monoclonal antibody (Pharmingen). One day after initiating the cultures, 120 IU/ml of IL-2 were added to the cultures. The cultures were fed with fresh AIM-V/5% AS medium containing 30 IU/ml of IL-2 on days 5, 8 and 11 (Tanaka H et al., Br J Cancer 2001 Jan 5, 84(1): 94-9; Umano Y et al., Br J Cancer 2001 Apr. 20, 84(8): 1052-7; Uchida N et al., Clin Cancer Res 2004 Dec. 15, 10(24): 8577-86; Suda T et al., Cancer Sci 2006 May, 97(5): 411-9; Watanabe T et al., Cancer Sci 2005 August, 96(8): 498-506).
as §1

## AYDIGLFAYF [SEQ ID NO: 41, AYDIGLFAYF]
[1]; listed as SEMA5B-A24-10-290
  IFN-gamma production of CTL clones, IFN-gamma ELISA: potent IFN-gamma production
[2]; listed as SEMA5B-A24-10-290
  Peptide specific CTL activity (IFN-gamma production), IFN-gamma ELISPOT: potent IFN-gamma production; also recorded: significant and specific CTL activity
[2]
  CTL inducibility: particularly high CTL inducibility
[3]; controls
  Specific CTL activity against control COS7 cells expressing either HLA-A*2402 or SEMA5B: no significant specific CTL activity
[3]; listed as SEMA5B-A24-10-290
  Specific CTL activity against COS7 cells transfected with both SEMA5B and HLA-A*2402: potent CTL activity; also recorded: specific CTL activity
[4]
  IFN-gamma production of CTL lines, IFN-gamma ELISA: potent IFN-gamma production

## AYRSQGACL [SEQ ID NO: 20, AYRSQGACL]
[2]; listed as SEMA5B-A24-9-558
  Peptide specific CTL activity (IFN-gamma production), IFN-gamma ELISPOT: potent IFN-gamma production; also recorded: significant and specific CTL activity
[2]
  CTL inducibility: particularly high CTL inducibility

## CFLGSGLLTL [SEQ ID NO: 47, CFLGSGLLTL]
[2]; listed as SEMA5B-A24-10-1044
  Peptide specific CTL activity (IFN-gamma production), IFN-gamma ELISPOT: potent IFN-gamma production; also recorded: significant and specific CTL activity
[2]
  CTL inducibility: particularly high CTL inducibility

## CYLEELHVL [SEQ ID NO: 2, CYLEELHVL]
[1]; listed as SEMA5B-A24-9-512
  IFN-gamma production of CTL clones, IFN-gamma ELISA: potent IFN-gamma production
[2]; listed as SEMA5B-A24-9-512
  Peptide specific CTL activity (IFN-gamma production), IFN-gamma ELISPOT: potent IFN-gamma production; also recorded: significant and specific CTL activity
[2]
  CTL inducibility: particularly high CTL inducibility
[4]
  IFN-gamma production of CTL lines, IFN-gamma ELISA: potent IFN-gamma production

## FYYNELQSAF [SEQ ID NO: 40, FYYNELQSAF]
[2]; listed as SEMA5B-A24-10-354
  Peptide specific CTL activity (IFN-gamma production), IFN-gamma ELISPOT: potent IFN-gamma production; also recorded: significant and specific CTL activity
[2]
  CTL inducibility: particularly high CTL inducibility

## IFWASWGSW [SEQ ID NO: 8, IFWASWGSW]
[2]; listed as SEMA5B-A24-9-723
  Peptide specific CTL activity (IFN-gamma production), IFN-gamma ELISPOT: potent IFN-gamma production; also recorded: significant and specific CTL activity
[2]
  CTL inducibility: particularly high CTL inducibility

## IGLFAYFFL [SEQ ID NO: 10, IGLFAYFFL]
[2]; listed as SEMA5B-A24-9-293
  Peptide specific CTL activity (IFN-gamma production), IFN-gamma ELISPOT: potent IFN-gamma production; also recorded: significant and specific CTL activity
[2]
  CTL inducibility: particularly high CTL inducibility
[4]
  IFN-gamma production of CTL lines, IFN-gamma ELISA: potent IFN-gamma production

## KWLNEPNFV [SEQ ID NO: 9, KWLNEPNFV]
[2]; listed as SEMA5B-A24-9-280
  Peptide specific CTL activity (IFN-gamma production), IFN-gamma ELISPOT: potent IFN-gamma production; also recorded: significant and specific CTL activity
[2]
  CTL inducibility: particularly high CTL inducibility

## LYAATVIDF [SEQ ID NO: 1, LYAATVIDF]
[2]
  Peptide specific CTL activity (IFN-gamma production), IFN-gamma ELISPOT: no specific IFN-gamma production

## LYIGTESGTI [SEQ ID NO: 54, LYIGTESGTI]
[2]; listed as SEMA5B-A24-10-489
  Peptide specific CTL activity (IFN-gamma production), IFN-gamma ELISPOT: potent IFN-gamma production; also recorded: significant and specific CTL activity
[2]
  CTL inducibility: particularly high CTL inducibility

## PYSEIPVIL [SEQ ID NO: 3, PYSEIPVIL]
[1]; listed as SEMA5B-A24-9-1010
  IFN-gamma production of CTL clones, IFN-gamma ELISA: potent IFN-gamma production
[2]; listed as SEMA5B-A24-9-1010
  Peptide specific CTL activity (IFN-gamma production), IFN-gamma ELISPOT: potent IFN-gamma production; also recorded: significant and specific CTL activity
[2]
  CTL inducibility: particularly high CTL inducibility
[4]
  IFN-gamma production of CTL lines, IFN-gamma ELISA: potent IFN-gamma production

## RFSHLVVDL [SEQ ID NO: 13, RFSHLVVDL]
[2]; listed as SEMA5B-A24-9-470
  Peptide specific CTL activity (IFN-gamma production), IFN-gamma ELISPOT: potent IFN-gamma production; also recorded: significant and specific CTL activity
[2]
  CTL inducibility: particularly high CTL inducibility

## VFMCGTNAF [SEQ ID NO: 4, VFMCGTNAF]
[2]; listed as SEMA5B-A24-9-196
  Peptide specific CTL activity (IFN-gamma production), IFN-gamma ELISPOT: potent IFN-gamma production; also recorded: significant and specific CTL activity
[2]
  CTL inducibility: particularly high CTL inducibility
